Measurements reported in patent publication US4769377A, “Adenosine receptor antagonists” (priority 1986, dated 1988).
Values after ≈ are worked out from the molar mass of the structure shown. “Also recorded” adds a separate entry of the source. Read-outs that look alike come from different tables or passages of the source. Blank lines part the entries; values can stand above or below the molecule they belong to.

How the values were obtained:
[1] = molecular target: T1, adenosine A1 receptors (Bos taurus, UniProt P28190); assay: biochemical;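 further: Filter-bound radioactivity read by liquid scintillation counting, with dose-inhibition curves built from 4–8 test concentrations, each run in triplicate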
T1 sequence (P28190 1-326): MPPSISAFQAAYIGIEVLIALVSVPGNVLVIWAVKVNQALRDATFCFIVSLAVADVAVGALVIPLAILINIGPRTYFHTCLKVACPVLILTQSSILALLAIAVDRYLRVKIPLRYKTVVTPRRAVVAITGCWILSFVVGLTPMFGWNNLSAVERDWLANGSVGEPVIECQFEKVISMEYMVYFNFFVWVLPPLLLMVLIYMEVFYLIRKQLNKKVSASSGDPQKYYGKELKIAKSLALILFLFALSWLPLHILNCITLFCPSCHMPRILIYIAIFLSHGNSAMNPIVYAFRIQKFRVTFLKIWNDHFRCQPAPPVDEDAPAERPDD
Protocol: (§1) Incubation was terminated and samples were collected on GF/B filters under vacuum, washed three times, and counted in a liquid scintillation counter. Dose-inhibition curves were generated with four to eight concentrations of the test compound in triplicate incubations.

[2] = molecular target: T1, adenosine A1 receptors; assay: inhibition of [^3 H]CHA binding to A1 adenosine receptors in bovine brain membranes;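 further: Filter-bound radioactivity read by liquid scintillation counting, with dose-inhibition curves built from 4–8 test concentrations, each run in triplicate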
Protocol: as §1

[3] = Solubility of 8-phenylxanthines; assay type: physicochemical
[4] = molecular target: T2, A1 receptor in rat brain (Rattus norvegicus, UniProt P25099); assay: A1 receptor affinity in rat brain; assay type: binding
T2 construct: from tissue; host or cells: rat brain
T2 sequence (P25099 1-326): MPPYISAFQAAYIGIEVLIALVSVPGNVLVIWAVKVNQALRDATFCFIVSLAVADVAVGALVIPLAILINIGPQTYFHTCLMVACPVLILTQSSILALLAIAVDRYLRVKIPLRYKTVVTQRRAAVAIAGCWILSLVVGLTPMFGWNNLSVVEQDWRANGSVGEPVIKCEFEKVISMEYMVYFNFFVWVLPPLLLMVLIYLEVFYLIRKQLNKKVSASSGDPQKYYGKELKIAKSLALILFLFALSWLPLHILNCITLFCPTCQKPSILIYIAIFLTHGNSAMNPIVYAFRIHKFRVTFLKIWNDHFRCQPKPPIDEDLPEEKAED

[5] = hydrophobicity; assay type: physicochemical
[6] = molecular target: T1, adenosine A1 receptors
Protocol: as §1

[7] = Table I, vs [^3 H]-cyclohexyladenosine, bovine brain
[8] = Table II, vs [^3 H-CHA] in bovine brain

SMILES: CCCn1c(=O)c2nc(-c3ccc(N)cc3N)[nH]c2n(CCC)c1=O [B262, 1,3-Dipropyl-8-(2,4-Diaminophenyl) Xanthine]
- Ki [1]: 0.14 nM
- water solubility (in words) ([3]; water): much greater water solubility
- IC50 [2]: 0.2 nM
- activity relative to most active prior art compound (B70) ([2]; bovine brain): four-fold greater
- adenosine receptor blocking activity (in words) ([2]; bovine brain): substantially less active than B256; also recorded: particularly outstanding activity
- adenosine receptor blocking activity (in words) ([2]; bovine brain, listed as 262): significantly lower

SMILES: CCCn1c(=O)c2[nH]c(-c3ccc(Cl)cc3N)nc2n(CCC)c1=O [B256, 1,3-dipropyl-8-(2-amino-4-chlorophenyl)xanthine]
- Ki [4]: 5 nM
- more potent than 8-phenyltheophylline using rat brain [4]: about 30 fold
- more potent than theophylline using rat brain [4]: ~2000 fold
- hydrophobicity (in words) [5]: hydrophobic
- Ki [6]: 0.022 nM
- solubility ([3]; dmf, organic solvent or mixture, read-out: soluble in DMF at): 30000 µM (≈ 10900 µg/mL)
- solubility ([3]; ethanol, organic solvent or mixture, read-out: soluble in ethanol at): 1000 µM (≈ 362 µg/mL)
- solubility ([3]; hot 0.1n koh, read-out: soluble in hot 0.1N KOH at): 1000 µM (≈ 362 µg/mL)
- water solubility (in words) ([3]; water): very water-insoluble
- IC50 [2, 7]: 0.05 nM
- activity relative to most active prior art compound (B70) ([2]; bovine brain): ~16 times
- adenosine receptor blocking activity (in words) ([2]; bovine brain): significantly lower; also recorded: extremely potent; also recorded: particularly outstanding activity
- times more potent than xanthine ([2]; bovine brain): approximately 4,000,000 times
- Ki ([2]; read-out: Ki for adenosine A1 receptors, bovine brain): 0.022 nM

SMILES: CCn1c(=O)c2[nH]c(-c3ccc(Cl)cc3N)nc2n(CC)c1=O [1,3-diethyl-8-(2-amino-4-chlorophenyl)X, 1,3-diethyl-8-(2-amino-4-chlorophenyl)xanthine]
- Ki [1]: 0.32 nM
- IC50 [2, 8]: 0.8 nM

SMILES: Cn1c(=O)c2[nH]c(-c3ccc([N+](=O)[O-])cc3N)nc2n(C)c1=O [8-(2-amino-4-nitrophenyl)T]
- Ki [1]: 1.2 nM
- IC50 [2, 8]: 2.5 nM

SMILES: CCn1c(=O)c2[nH]c(-c3ccccc3)nc2n(CC)c1=O [1,3-diethyl-8-phenylX, 1,3-diethyl-8-phenylxanthine]
- solubility ([3]; water, read-out: soluble in water at): 3 µM (≈ 0.853 µg/mL)

SMILES: Cn1c(=O)c2nc3ccccc3nc2n(C)c1=O [1,3-dimethylalloxazine]
- IC50 [2]: 25000 nM

SMILES: Cc1cccc(-c2nc3c([nH]2)c(=O)n(C)c(=O)n3C)c1 [8-(m-methylphenyl)T]
- IC50 [2, 8]: 13 nM

SMILES: Cn1c(=O)c2c(ncn2CCCl)n(C)c1=O [7-(2-chloroethyl)T]
- IC50 [2]: 5000 nM

SMILES: COc1cc(OC)cc(-c2nc3c([nH]2)c(=O)n(C)c(=O)n3C)c1 [8-(3,5-dimethoxyphenyl)T]
- IC50 [2, 8]: 500 nM

SMILES: COc1ccccc1-c1nc2c([nH]1)c(=O)n(C)c(=O)n2C [8-(o-methoxyphenyl)T]
- IC50 [2, 8]: 350 nM

More lines, now with the values ahead:

- Ki [1]: 5.9 nM
- IC50 [2, 7]: 8 nM
SMILES: Cn1c(=O)c2[nH]c(-c3ccc(N)cc3N)nc2n(C)c1=O [B232, 8-(2,4-diaminophenyl)theophylline]

- Ki [1]: 0.2 nM
- IC50 [2]: 0.15 nM
- adenosine receptor blocking activity (in words) ([2]; bovine brain): significantly lower
SMILES: Cn1c(=O)c2[nH]c(-c3ccc(Cl)cc3N)nc2n(C)c1=O [B246, 8-(2-Amino-4-Chlorophenyl) Theophylline]

- IC50 [2]: 150000 nM
SMILES: Cn1c(=O)[nH]c(=O)c2[nH]cnc21 [3-methylX]

- IC50 [2]: 30000 nM
- Ki [2]: 7400 nM
SMILES: Cn1c(=O)[nH]c2ncn(C)c2c1=O [1,7-dimethylX]

- IC50 [2]: 5 nM
SMILES: Cc1ccc(-c2nc3c([nH]2)c(=O)n(C)c(=O)n3C)s1 [8-(5-methyl-2-thienyl)T]
